Common to all, as to test: DTP human tumour cell line panel, 48 h
For assay [1], the system named is SF-295.
Assay [2] has as its system HL-60.
The subject of assay [3] is OVCAR-8.
Assay [4] concerns EKVX.
Assay [5] relates to CCRF-CEM.
The test system of assay [6] is HOP-62.
The test system of assay [7] is LOX IMVI.
The test system of assay [8] is MOLT-4.
The test system of assay [9] is OVCAR-4.
Assay [10] relates to SF-539.
Assay [11] deals with SW-620.
Assay [12] concerns NCI-H226.
Assay [13] concerns A498.
For assay [14], the system named is RXF 393.
In assay [15] the test system is HCT-15.
The test system of assay [16] is NCI-H460.

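Five compound concentrations were applied to cells in 96-well plates for 48 hours; endpoints were derived by simple linear interpolation of the resulting dose-response curve. The concentration for 50% growth inhibition is given as GI50.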 Activity calls are given as the source filed them. Rule as the data show it: active = GI50 up to about 1.1 µM and inactive = higher.

Regarding `Cc1ccccc1-n1c(N)c(-c2nc3ccccc3[nH]2)sc1=S`, the GI50 was 22.6 µM (inactive) in [1]; 26.1 µM (inactive) in assay [2]; 32.8 µM (inactive) in assay [3]; 53.5 µM (inactive) in [4]; 36.5 µM (inactive) in assay [5]; 25 µM (inactive) in [6]. Also, the GI50 in assay [7] is 28.1 µM (inactive); in assay [8], 27.7 µM (inactive); in [9], 28.8 µM (inactive); in [10], 24.1 µM (inactive); in assay [11] it was 31.1 µM (inactive); in [12], 36 µM (inactive). The GI50 in assay [13] was 40.1 µM (inactive); in assay [14], 30.1 µM (inactive); in [15], 34.7 µM.

For `COc1ccc(OC)c(/C(C)=N/NC(N)=S)c1`, the GI50 in assay [1], in assay [2], in assay [3], in assay [4], in assay [5] and in [6] was > 100 µM (inactive) in each case. Moreover, the GI50 in [7] is > 100 µM (inactive); in assay [8], 74.8 µM (inactive); in assay [9] it was > 100 µM (inactive); in assay [16], > 100 µM (inactive); in [10] it was > 100 µM (inactive); in assay [11] it was > 100 µM (inactive). The GI50 in assay [12] is > 100 µM (inactive); in assay [13], > 100 µM (inactive); in assay [14], > 100 µM (inactive); in assay [15], over 100 µM.

In the case of `CC1=NC2(C(=O)O)C3(C(=O)O)N=C(C)OC3(C(F)(F)F)C2(C(F)(F)F)O1` (stereo not drawn), the GI50 in assay [1], in assay [2], in assay [3], in assay [4], in assay [5] and in assay [6] was > 100 µM (inactive) each time. Besides, the GI50 in [7], in assay [8], in assay [9], in assay [16], in assay [10] and in assay [11] was > 100 µM (inactive) each time. Moreover, the GI50 in assay [12] was > 100 µM (inactive); in [13] it was > 100 µM (inactive); in assay [14], > 100 µM (inactive); in [15], over 10 µM.

On to `O=C(CC(=O)N1N=C(n2ccc3ccccc32)CC1c1ccccc1)Nc1ccccc1Cl` (stereo not drawn), for which the GI50 in [1], in [2], in [3], in assay [4], in assay [5] and in [6] was > 100 µM (inactive) throughout. For the same compound, the GI50 in assay [7], in assay [8], in assay [9], in assay [16], in assay [10] and in assay [11] was > 100 µM (inactive) throughout. Further, the GI50 was > 100 µM (inactive) in assay [13], > 100 µM (inactive) in assay [14] and over 100 µM in assay [15].

Turning to `CN(C)c1ccccc1CC(c1c[nH]c2ccccc12)c1c[nH]c2ccccc12`, the GI50 in assay [1] is 11.9 µM (inactive); in assay [2] it was 7.93 µM (inactive); in [3], 11.2 µM (inactive); in assay [4], 5.38 µM (inactive); in assay [5], 9.51 µM (inactive); in assay [6], 6.62 µM (inactive). Further, the GI50 in [7] was 11.8 µM (inactive); in [8] it was 4.35 µM (inactive); in [9], 9.06 µM (inactive); in assay [16], 4.72 µM (inactive); in assay [10] it was 17.2 µM (inactive); in assay [11] it was 6.7 µM (inactive). Besides, the GI50 was 12.1 µM (inactive) in assay [12], 17.1 µM (inactive) in assay [13], 7.91 µM (inactive) in [14] and 12.2 µM in assay [15].

With `CC(=O)C1(O)CC2(c3ccccc3)C(=O)C1(c1ccccc1)C(c1ccccc1)=C2c1ccccc1` (stereo not drawn), the GI50 in assay [1] is 33.4 µM (inactive); in assay [2] it was 29.4 µM (inactive); in [3], > 100 µM (inactive); in assay [4], > 100 µM (inactive); in assay [5], > 100 µM (inactive); in assay [6], > 100 µM (inactive). Besides, the GI50 is > 100 µM (inactive) in assay [7]; 39.6 µM (inactive) in [8]; 13.5 µM (inactive) in assay [9]; > 100 µM (inactive) in assay [16]; > 100 µM (inactive) in assay [10]; > 100 µM (inactive) in assay [11]. Also, the GI50 in assay [12] was > 100 µM (inactive); in assay [13], > 100 µM (inactive); in assay [14], > 100 µM (inactive); in [15] it was over 100 µM.

As for `COc1cc(C2C(Cl)C(=O)N2NC(=O)c2ccc(NC(C)=O)cc2)ccc1O` (stereo not drawn), the GI50 in [1], in assay [2], in assay [3], in assay [4], in [5] and in assay [6] was > 100 µM (inactive) in each case. Besides, the GI50 in [7], in [8], in [9], in assay [16], in [10] and in [11] was > 100 µM (inactive) in each case. In addition, the GI50 in [12] was > 100 µM (inactive); in assay [13] it was > 100 µM (inactive); in [14], > 100 µM (inactive); in assay [15], over 100 µM.

For the compound `c1cc2ccc1C1NCCCN1CCN1CCCNC1c1ccc(cc1)C1NCCCN1CCN1CCCNC21` (stereo not drawn), the GI50 is > 100 µM (inactive) in [1]; 20.1 µM (inactive) in [2]; > 100 µM (inactive) in assay [3]; > 100 µM (inactive) in assay [4]; 41.8 µM (inactive) in [5]; > 100 µM (inactive) in assay [6]. In addition, the GI50 in [7] is 92.3 µM (inactive); in assay [8], > 100 µM (inactive); in [9], > 100 µM (inactive); in assay [16], 77.3 µM (inactive); in assay [10], > 100 µM (inactive); in assay [11], 18.5 µM (inactive). Besides, the results for the GI50 in assay [13] and in assay [15] were > 100 µM (inactive) and 61.8 µM, respectively.

For `O=S(=O)(CC1=NC2C=CC=CC2N=C1)NCc1ccccc1` (stereo not drawn), the GI50 was > 100 µM (inactive) in assay [1]; 69.5 µM (inactive) in assay [2]; > 100 µM (inactive) in [3]; > 100 µM (inactive) in assay [4]; > 100 µM (inactive) in [5]; > 100 µM (inactive) in assay [6]. The GI50 in assay [7] was > 100 µM (inactive); in [8], 69.5 µM (inactive); in assay [9], 55.2 µM (inactive); in assay [16], > 100 µM (inactive); in assay [10], > 100 µM (inactive); in [11], > 100 µM (inactive). In addition, the GI50 in assay [12] is 78.7 µM (inactive); in assay [13] it was > 100 µM (inactive); in assay [14], 12.9 µM (inactive); in [15], 81.7 µM.

Take `N#CCC(=O)N1CCCOCCC1`: the GI50 was > 100 µM (inactive) in assay [1]; 58.7 µM (inactive) in [2]; > 100 µM (inactive) in [4]; > 100 µM (inactive) in assay [5]; > 100 µM (inactive) in assay [6]; 44.8 µM (inactive) in [7]. Further, the GI50 in assay [8] was 0.46 µM (active); in [9] it was 38.6 µM (inactive); in assay [16], > 100 µM (inactive); in assay [10] it was > 100 µM (inactive); in assay [11], 6.73 µM (inactive); in [13], > 100 µM (inactive). The GI50 in assay [14] is > 100 µM (inactive); in [15], 17.9 µM.

Regarding `O=S1(=O)OCCOS(=O)(=O)C1(Br)Cc1ccccc1`, the GI50 in [1], in assay [2], in assay [3], in assay [4], in [5] and in assay [6] was > 100 µM (inactive) each time. Further, the GI50 in assay [7], in assay [8], in assay [9], in assay [16], in assay [10] and in [11] was > 100 µM (inactive) in each case. For the same compound, the GI50 was > 100 µM (inactive) in assay [12], > 100 µM (inactive) in assay [13], > 100 µM (inactive) in assay [14] and over 100 µM in [15].

As for `CC(C)N1CN(C(C(=O)N[C@@H]2C(=O)N3C2SC(C)(C)C3C(=O)O)c2ccc(O)cc2)CSC1=S` (stereo partly drawn), the GI50 in [1] is > 100 µM (inactive); in assay [2], > 100 µM (inactive); in [3], > 100 µM (inactive); in assay [4], > 100 µM (inactive); in [5] it was 58.7 µM (inactive); in assay [6], > 100 µM (inactive). In addition, the GI50 in [7] was > 100 µM (inactive); in assay [8] it was > 100 µM (inactive); in assay [9] it was > 100 µM (inactive); in assay [16], > 100 µM (inactive); in [10] it was > 100 µM (inactive); in assay [11], 16.9 µM (inactive). Moreover, the GI50 in assay [13] was > 100 µM (inactive); in assay [15] it was 43 µM.

On to `C#Cc1c(C)c(/C=C/C(C)=C/C(=O)OC)n(C)c1C`, for which the GI50 in assay [1] is > 100 µM (inactive); in assay [2] it was 12.1 µM (inactive); in assay [3], 71.9 µM (inactive); in assay [4] it was > 100 µM (inactive); in assay [5] it was 51.9 µM (inactive); in [6], > 100 µM (inactive). For the same compound, the GI50 in assay [7] is > 100 µM (inactive); in assay [8] it was 23.4 µM (inactive); in assay [9], 82.2 µM (inactive); in assay [10], > 100 µM (inactive); in assay [11], > 100 µM (inactive); in assay [12], > 100 µM (inactive). Besides, the GI50 was > 100 µM (inactive) in assay [13] and 95.3 µM in assay [15].
